Assay results taken from the supplement of paper PMC10307832.

Assays:
Assay in all cases: relative viability (nuclei count vs DMSO), 5 days (fraction); higher = more cells survive
[1] = compound: CS(=O)(=O)c1ccc(C(=O)Nc2ccc(Cl)c(-c3ccccn3)c2)c(Cl)c1 [Vismodegib] + CC(C)C[C@H](NC(=O)[C@H](Cc1ccccc1)NC(=O)c1cnccn1)B(O)O [Bortezomib] (partner 0.002 µM)
How it was run: (§1)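 After 5 days of treatment, lung cancer cells in 1536-well plates were fixed and stained in a single step (final 0.05% Triton X-100, 1% formaldehyde, 1 ug/ml Hoechst) and their nuclei counted on 4× images. Treatment had been applied by pin tool the day after seeding as one drug alone or as a fixed anchor-drug dose with five library-drug doses (not always all listed) in √10 steps. Relative viability is the nuclei count of treated wells divided by that of vehicle wells, and values are medians of duplicate plates.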

[2] = compound: N#CC[C@H](C1CCCC1)n1cc(-c2ncnc3[nH]ccc23)cn1 [Ruxolitinib] + COc1cc2c(Oc3ccc(NC(=O)C4(C(=O)Nc5ccc(F)cc5)CC4)cc3F)ccnc2cc1OCCCN1CCOCC1 [Foretinib] (partner 0.25 µM)
How it was run: as §1

[3] = compound: N#CC[C@H](C1CCCC1)n1cc(-c2ncnc3[nH]ccc23)cn1 [Ruxolitinib] + CS(=O)(=O)CCNCc1ccc(-c2ccc3ncnc(Nc4ccc(OCc5cccc(F)c5)c(Cl)c4)c3c2)o1 [Lapatinib] (partner 2 µM)
How it was run: as §1

[4] = compound: N#CC[C@H](C1CCCC1)n1cc(-c2ncnc3[nH]ccc23)cn1 [Ruxolitinib] + C[C@@H](Oc1cc(-c2cnn(C3CCNCC3)c2)cnc1N)c1c(Cl)ccc(F)c1Cl [Crizotinib] (partner 1 µM)
How it was run: as §1

Cell Line	relative viability ([1]; first compound 0.08 µM)	relative viability ([1]; first compound 0.253 µM)	relative viability ([1]; first compound 0.8 µM)	relative viability ([1]; first compound 2.53 µM)	relative viability ([1]; first compound 8 µM)	relative viability ([2]; first compound 0.08 µM)	relative viability ([2]; first compound 0.8 µM)	relative viability ([2]; first compound 2.53 µM)	relative viability ([2]; first compound 8 µM)	relative viability ([3]; first compound 0.253 µM)	relative viability ([3]; first compound 0.8 µM)	relative viability ([3]; first compound 2.53 µM)	relative viability ([3]; first compound 8 µM)	relative viability ([4]; first compound 0.253 µM)	relative viability ([4]; first compound 0.8 µM)	relative viability ([4]; first compound 2.53 µM)	relative viability ([4]; first compound 8 µM)	relative viability ([2]; first compound 0.253 µM)	relative viability ([3]; first compound 0.08 µM)	relative viability ([4]; first compound 0.08 µM)
NCI-H520	0.443	0.812	0.619	0.697	0.668	0.703	0.853	0.753	0.885	0.815	1.04	0.588	0.671	0.714	0.964	0.708	0.645	–	–	–
NCI-H1355	1.23	1.18	1.12	1.1	1.11	0.85	1.12	0.87	0.893	0.898	1.01	0.902	0.863	1.01	1.06	0.839	0.907	0.967	0.939	1.08
NCI-H1563	0.845	0.881	0.904	0.922	0.906	0.994	0.997	0.852	0.94	0.85	0.979	0.903	0.774	0.84	0.931	0.704	0.838	0.976	1.07	0.865
NCI-H1651	1	0.936	0.953	0.619	0.882	0.621	0.947	0.776	0.95	0.92	0.884	0.767	0.903	0.893	0.847	0.779	0.842	0.791	0.958	0.8
HCC-44	0.918	0.816	0.897	0.841	0.901	–	–	–	–	1.07	1.04	1.01	0.783	0.839	0.866	0.854	0.527	–	1.06	0.765
NCI-H1437	0.408	0.597	0.594	0.541	0.539	1.37	1.41	1.35	1.17	0.883	0.926	0.695	0.57	1.08	0.872	0.795	0.778	1.51	0.976	0.924
201T	1.13	1.07	1.09	1.09	1.09	1.11	1.43	1.1	1.26	1.14	1.11	1.28	1.26	1.11	1.19	1.29	1.18	–	1.1	1.02
LCLC-103H	1.05	1.03	1.07	0.99	0.983	0.808	0.881	0.71	0.661	–	–	–	–	1.15	1.2	1.09	0.988	0.672	–	1.04
NCI-H1915	1.05	0.976	0.985	0.905	0.953	1.1	1.17	0.947	0.982	1	0.927	0.999	0.798	0.925	1.01	0.835	0.864	1.11	0.973	0.903
NCI-H2085	1.08	0.985	1.06	1.1	1.02	1.03	1.13	0.797	0.732	0.67	1	0.725	0.806	0.921	0.857	0.784	0.711	0.984	0.853	0.844
NCI-H2228	1.08	0.954	0.958	0.835	0.965	0.86	0.794	0.717	0.429	1.17	1.22	0.82	0.664	0.36	0.531	0.492	0.403	0.911	0.972	0.63
EKVX	1.1	1.09	1.1	1.06	1.03	0.234	0.768	0.795	0.311	0.194	0.231	0.207	0.188	0.983	1.07	0.757	0.798	0.698	0.224	0.894
COR-L23	1	0.938	0.983	0.916	1.09	0.944	1.07	1	0.772	0.9	1.16	0.744	0.823	0.681	0.733	0.7	0.433	0.988	1	0.717
SK-MES-1	–	–	–	–	–	0.927	0.955	0.788	0.768	0.412	0.448	0.474	0.42	0.984	1.02	0.925	0.702	0.714	0.493	1.03
A549	–	–	–	–	–	0.926	1.08	0.834	0.632	1.03	1.04	0.918	0.636	0.891	0.855	0.692	0.293	0.926	0.998	0.782
NCI-H650	0.855	0.735	0.795	0.732	0.687	–	1.14	0.917	0.678	0.925	1.05	0.842	0.667	0.77	0.846	0.644	0.54	1	–	–
NCI-H2087	0.745	0.786	0.699	0.587	0.836	1.03	1.28	0.975	0.772	1.1	1.16	0.786	1.04	1.07	1	0.919	0.615	0.983	1.05	0.928

Cell Line	relative viability ([1]; first compound 0.08 µM)	relative viability ([1]; first compound 0.253 µM)	relative viability ([1]; first compound 0.8 µM)	relative viability ([1]; first compound 2.53 µM)	relative viability ([1]; first compound 8 µM)	relative viability ([2]; first compound 0.08 µM)	relative viability ([2]; first compound 0.8 µM)	relative viability ([2]; first compound 2.53 µM)	relative viability ([2]; first compound 8 µM)	relative viability ([3]; first compound 0.253 µM)	relative viability ([3]; first compound 0.8 µM)	relative viability ([3]; first compound 2.53 µM)	relative viability ([3]; first compound 8 µM)	relative viability ([4]; first compound 0.253 µM)	relative viability ([4]; first compound 0.8 µM)	relative viability ([4]; first compound 2.53 µM)	relative viability ([4]; first compound 8 µM)	relative viability ([2]; first compound 0.253 µM)	relative viability ([3]; first compound 0.08 µM)	relative viability ([4]; first compound 0.08 µM)
EBC-1	0.481	0.564	0.567	0.559	0.67	0.0875	0.116	0.115	0.0903	–	0.216	0.232	0.195	–	0.21	0.204	0.202	0.0905	0.21	0.191
NCI-H1623	–	–	–	–	–	0.908	0.971	1.01	0.994	–	–	–	–	–	–	–	–	0.94	–	–
NCI-H661	0.821	0.806	0.756	0.837	0.829	0.92	1.08	0.94	0.926	0.564	0.614	0.452	0.606	1.02	0.941	–	0.841	1.05	0.518	0.941
NCI-H596	0.923	1.09	0.976	1.18	1.05	0.907	0.888	0.947	0.804	1.07	1.22	1.03	1.07	0.98	1.19	0.919	0.912	0.848	1.18	0.994
IA-LM	0.892	0.825	0.867	0.754	0.795	1.04	1.34	1.22	0.885	0.657	1.04	1.01	0.477	1.05	0.791	0.849	0.638	1.19	0.903	0.886
NCI-H358	–	–	–	–	–	0.531	0.638	0.619	0.558	0.434	0.445	0.36	0.35	0.577	0.686	0.512	0.417	0.692	0.421	0.677
NCI-H2342	–	–	–	–	–	1.07	1.17	1.07	1.11	–	–	–	–	–	–	–	–	0.936	–	–
LK-2	–	–	–	–	–	1.15	1.46	1.29	1.34	0.893	1.23	0.997	0.964	0.224	0.243	0.283	0.239	1.45	–	–
ChaGo-K-1	0.971	0.957	0.845	0.744	1.04	0.956	0.898	0.772	0.823	–	–	–	–	1.13	1.22	0.963	0.997	0.934	–	–
NCI-H1792	0.953	0.974	0.929	0.946	0.93	–	–	–	–	0.831	0.846	0.845	0.824	0.893	0.946	0.753	0.85	–	0.936	1.01
NCI-H2170	–	–	–	–	–	0.992	0.602	0.951	0.943	0.253	0.302	0.276	0.301	1.23	1.19	1.05	1.1	0.609	0.303	1.14
SW 900	–	–	–	–	–	0.88	1.01	0.912	1.11	–	–	–	–	–	–	–	–	0.806	–	–
NCI-H1395	–	–	–	–	–	1.07	1.03	0.866	0.968	0.879	1.16	0.777	0.944	–	–	–	–	0.919	–	–
NCI-H1793	–	–	–	–	–	0.604	0.959	0.761	0.54	0.665	0.905	0.896	0.493	–	–	–	–	0.668	0.647	–
NCI-H441	0.535	0.588	0.522	0.319	0.523	1.07	0.997	0.787	0.855	–	–	–	–	0.585	0.847	0.724	0.555	0.915	–	0.682
NCI-H1944	–	–	–	–	–	0.839	0.876	0.873	0.877	0.903	0.798	0.729	0.815	0.955	0.998	0.928	1.02	0.886	0.823	0.99
